Tests used:
[1] = target: Serine/threonine-protein kinase mTOR (Homo sapiens, UniProt P42345); experiment: Inhibition of mTOR (unknown origin) by Kinase-Glo plus luminescence kinase assay or and ADP-Glo Plus luminescence kinase assay
MCF7 = experiment: cells; conditions: Homo sapiens, MCF7, 72 h
Description: Antiproliferative activity against human MCF7 cells incubated for 72 hrs by MTT assay

[2] = target: Phosphatidylinositol 4,5-bisphosphate 3-kinase catalytic subunit alpha isoform (Homo sapiens, UniProt P42336); experiment: Inhibition of PI3Kalpha (unknown origin) using lipid substrate by Kinase-Glo plus luminescence kinase assay or and ADP-Glo Plus luminescence kinase assay
Chain of Phosphatidylinositol 4,5-bisphosphate 3-kinase catalytic subunit alpha isoform (P42336 whole entry, canonical isoform): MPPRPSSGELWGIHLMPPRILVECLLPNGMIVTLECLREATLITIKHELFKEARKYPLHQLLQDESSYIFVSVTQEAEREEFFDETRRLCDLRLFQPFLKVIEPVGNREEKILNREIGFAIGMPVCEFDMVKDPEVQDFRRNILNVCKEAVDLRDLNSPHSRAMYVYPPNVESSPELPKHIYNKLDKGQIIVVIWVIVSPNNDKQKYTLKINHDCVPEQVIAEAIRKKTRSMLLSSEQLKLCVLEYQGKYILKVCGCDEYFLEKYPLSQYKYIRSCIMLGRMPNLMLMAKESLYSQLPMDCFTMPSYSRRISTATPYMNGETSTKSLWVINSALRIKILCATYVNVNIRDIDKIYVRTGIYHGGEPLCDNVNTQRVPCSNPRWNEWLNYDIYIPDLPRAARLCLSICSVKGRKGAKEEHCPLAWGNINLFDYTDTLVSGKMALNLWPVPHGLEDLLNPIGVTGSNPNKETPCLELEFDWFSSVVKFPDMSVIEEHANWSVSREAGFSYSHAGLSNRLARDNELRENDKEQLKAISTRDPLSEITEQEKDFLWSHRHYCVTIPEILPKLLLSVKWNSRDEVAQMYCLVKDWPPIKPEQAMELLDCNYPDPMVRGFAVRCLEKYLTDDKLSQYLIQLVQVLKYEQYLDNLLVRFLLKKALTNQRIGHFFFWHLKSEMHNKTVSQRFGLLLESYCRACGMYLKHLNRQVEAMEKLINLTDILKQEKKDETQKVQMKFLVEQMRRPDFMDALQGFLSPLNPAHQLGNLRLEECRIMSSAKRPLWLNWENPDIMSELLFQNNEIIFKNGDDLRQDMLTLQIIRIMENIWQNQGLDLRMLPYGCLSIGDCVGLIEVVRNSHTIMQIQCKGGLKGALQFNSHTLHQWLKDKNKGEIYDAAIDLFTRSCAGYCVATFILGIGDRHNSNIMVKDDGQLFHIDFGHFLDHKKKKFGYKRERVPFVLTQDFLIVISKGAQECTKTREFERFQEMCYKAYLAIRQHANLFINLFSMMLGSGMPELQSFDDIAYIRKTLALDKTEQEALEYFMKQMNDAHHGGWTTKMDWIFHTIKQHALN

A2780 = experiment: cells; conditions: Homo sapiens, A2780, 72 h
Description: Antiproliferative activity against human A2780 cells incubated for 72 hrs by MTT assay

IC50 [1] [nM] | IC50 (MCF7) [nM] | IC50 [2] [nM] | IC50 (A2780) [nM] | SMILES
290 | 64 | > 10000 | 3110 | CCCn1cnc2c(N3CCOC[C@@H]3C)cc(-c3ccc(NC(=O)NCC)cc3)nc21
330 to 332 | 18 | > 10000 | 2710 | CCNC(=O)Nc1ccc(-c2cc(N3CCOC[C@@H]3C)c3nc(C)n(CC)c3n2)cc1
39 | 5.8 | 4200 | 330 | CCNC(=O)Nc1ccc(-c2nc3c(c(N4CCOC[C@@H]4C)n2)CCN(C2COC2)C3)cc1 [RG-7603]
